Assay type in all cases: physicochemical
Data set [1] is described as follows: Hygroscopicity by dynamic vapor sorption (DVS). On the procedure:
(§1) Hygroscopicity was assessed using dynamic vapor sorption equipment (Surface Measurement Systems Ltd, model DVS-1). The analysis was conducted at 30° C. with a nitrogen gas flow of 200 cc/min. Water sorption and desorption were determined in the range 0 to 90% relative humidity (RH) using 15% RH intervals. Exposure was for a minimum of 2 hours at each humidity, or until the rate of weight change was less than 0.0003%/minute (averaged over 10 minutes). Sample weight was 12.6 mg. The sample was weighed using a CAHN D-200, seven place digital recording balance, which is an integral part of the equipment. […] Solvation/Hydration was assessed by thermogravimetric analysis (TGA) using a TA Instruments Hi-Res TGA 2950 instrument measuring the weight loss of an 8.8 mg sample in an open platinum pan. The sample was heated at 20° C./min from ambient to 300° C. utilizing a nitrogen furnace purge gas.

Data set [2] is described as follows: Solvation/hydration assessed by thermogravimetric analysis (TGA); solid form screening. Particulars: for hydration or solvation: TGA, ambient to 300° C. at 20° C./min. As for the experimental part:
as §1

Data set [3] in a line: Solid state stability and excipient compatibility on storage (drug content and impurities). Particulars: for % main band remaining versus control: API. As for the experimental part: In order to test for solid state stability and excipient compatibility, a sample of the xinafoate salt was micronized by jet milling (particle size: D10=0.24 μm; D50=1.15 D90=4.29 μm) and the resulting powder was blended at a 1:100 weight ratio with lactose monohydrate (Respitose grade SV008). Samples were stored for 12 weeks at 25° C./60% relative humidity and 40° C./75% relative humidity and assayed for remaining drug content and impurities at 4, 8 and 12 weeks. A control sample was stored at 5° C./0% humidity.

The values below come from US20180064646A1, “METHOD AND DEVICE FOR ADMINISTERING XINAFOATE SALT OF N4-(2,2-DIFLUORO-4H-BENZO[1,4]OXAZIN-3-ONE)-6-YL]-5-FLUORO-N2-[3-(METHYLAMINOCARBONYLMETHYLENEOXY)PHENYL]2,4-PYRIMIDINEDIAMINE” (Rigel Pharmaceutical, Inc., priority 2011, published 2018).

Structures can show the parent of a compound that is named as a salt.

Turning to `CNC(=O)COc1cccc(Nc2ncc(F)c(Nc3ccc4c(c3)NC(=O)C(F)(F)O4)n2)c1` [xinafoate salt, N4-[(2,2-difluoro-4H-benzo[1,4]oxazin-3-one)-6-yl]-5-fluoro-N2-[3-(methylaminocarbonylmethyleneoxy)phenyl]-2,4-pyrimidinediamine], in data set [1] (DVS, 0 to 90% RH, 30° C.), the hygroscopicity result is “essentially non-hygroscopic”. For the same compound, the water sorption worked out at 0.6% in data set [1] (at 90% RH, 30° C., DVS, unmicronized sample) and 0.9% in data set [1] (at 90% relative humidity, following micronization using jet milling). The “solid form after micronization” value in data set [1] (following micronization using jet milling) is on record as “no change in solid form”. The hydration or solvation entry in data set [2] is on record as “does not show any hydration or solvation”. The results for the “time for which stable” value in data set [3] (25° C./60% relative humidity) and in data set [3] (40° C./75% relative humidity) were “at least two years” and “at least six months”, respectively. For the same compound, the “% main band remaining versus control” value in data set [3] (25° C./60% RH, 4 weeks, control 5° C./0% humidity) came out at 100.2%; in data set [3] (25° C./60% RH, 8 weeks), 99.9%; in data set [3] (25° C./60% RH, 12 weeks), 100.1%; in data set [3] (40° C./75% RH, 4 weeks) it was 100.4%; in data set [3] (40° C./75% RH, 8 weeks), 100.0%; in data set [3] (40° C./75% RH, 12 weeks), 100.0%.
Regarding `CNC(=O)COc1cccc(Nc2ncc(F)c(Nc3ccc4c(c3)NC(=O)C(F)(F)O4)n2)c1` [free base, N4-[(2,2-difluoro-4H-benzo[1,4]oxazin-3-one)-6-yl]-5-fluoro-N2-[3-(methylaminocarbonylmethyleneoxy)phenyl]-2,4-pyrimidinediamine], the hydration or solvation result in data set [2] is “hydrates to form a hemihydrate”. In addition, the solvate formation entry in data set [2] (nine solvents tested) was “formed a different solvated form in each of nine solvents tested”.
